Source: ChEMBL document CHEMBL4138123, “Design, synthesis and biological evaluation of novel pyrazolochalcones as potential modulators of PI3K/Akt/mTOR pathway and inducers of apoptosis in breast cancer cells” (Eur J Med Chem, 2017)

Experiments:
Type in all cases: functional
TK-10 [1] = experiment: Cytotoxicity against human TK10 cells assessed as growth inhibition after 48 hrs by sulforhodamine B assay; details: TK-10, 48 h
Hs-578T [2] = experiment: Cytotoxicity against human Hs 578T cells assessed as cell growth at 0.1 uM after 48 hrs by sulforhodamine B assay relative to control; details: read-out: Activity
NCI-H460 = experiment: Cytotoxicity against human NCI-H460 cells assessed as cell growth at 1 uM after 48 hrs by sulforhodamine B assay relative to control; details: NCI-H460, 48 h, read-out: Activity
SNB-19 [3] = experiment: Cytotoxicity against human SNB19 cells assessed as cell growth at 100 uM after 48 hrs by sulforhodamine B assay relative to control; details: SNB-19, 48 h, read-out: Activity
A498 = experiment: Cytotoxicity against human A498 cells assessed as cell growth at 1 uM after 48 hrs by sulforhodamine B assay relative to control; details: A498, 48 h, read-out: Activity
NCI-H226 = experiment: Cytotoxicity against human NCI-H226 cells assessed as growth inhibition after 48 hrs by sulforhodamine B assay; details: NCI-H226, 48 h
HCT-116 [4] = experiment: Cytotoxicity against human HCT116 cells assessed as growth inhibition after 48 hrs by sulforhodamine B assay; details: HCT-116, 48 h
UACC-62 = experiment: Cytotoxicity against human UACC62 cells assessed as cell growth at 1 uM after 48 hrs by sulforhodamine B assay relative to control; details: UACC-62, 48 h, read-out: Activity
HCT-116 [5] = experiment: Cytotoxicity against human HCT116 cells assessed as cell growth at 0.1 uM after 48 hrs by sulforhodamine B assay relative to control; details: HCT-116, 48 h, read-out: Activity
Hs-578T [6] = experiment: Cytotoxicity against human Hs 578T cells assessed as cell growth at 100 uM after 48 hrs by sulforhodamine B assay relative to control; details: read-out: Activity
NCI/ADR-RES [7] = experiment: Cytotoxicity against human NCI/ADR-RES cells assessed as cell growth at 100 uM after 48 hrs by sulforhodamine B assay relative to control; details: read-out: Activity
MCF7 = experiment: Cytotoxicity against human MCF7 cells assessed as cell growth at 1 uM after 48 hrs by sulforhodamine B assay relative to control; details: MCF7, 48 h, read-out: Activity
A549 = experiment: Cytotoxicity against human A549/ATCC cells assessed as growth inhibition after 48 hrs by sulforhodamine B assay; details: A549, 48 h
SW-620 = experiment: Cytotoxicity against human SW620 cells assessed as growth inhibition after 48 hrs by sulforhodamine B assay; details: SW-620, 48 h
HOP-62 = experiment: Cytotoxicity against human HOP62 cells assessed as cell growth at 1 uM after 48 hrs by sulforhodamine B assay relative to control; details: HOP-62, 48 h, read-out: Activity
SK-MEL-28 = experiment: Cytotoxicity against human SK-MEL-28 cells assessed as cell growth at 10 uM after 48 hrs by sulforhodamine B assay relative to control; details: SK-MEL-28, 48 h, read-out: Activity
HCT-15 [8] = experiment: Cytotoxicity against human HCT15 cells assessed as cell growth at 0.01 uM after 48 hrs by sulforhodamine B assay relative to control; details: HCT-15, 48 h, read-out: Activity
NCI-H522 = experiment: Cytotoxicity against human NCI-H522 cells assessed as growth inhibition after 48 hrs by sulforhodamine B assay; details: NCI-H522, 48 h
SNB-19 [9] = experiment: Cytotoxicity against human SNB19 cells assessed as cell growth at 0.1 uM after 48 hrs by sulforhodamine B assay relative to control; details: SNB-19, 48 h, read-out: Activity
KM12 = experiment: Cytotoxicity against human KM12 cells assessed as cell growth at 10 uM after 48 hrs by sulforhodamine B assay relative to control; details: KM12, 48 h, read-out: Activity
TK-10 [10] = experiment: Cytotoxicity against human TK10 cells assessed as cell growth at 1 uM after 48 hrs by sulforhodamine B assay relative to control; details: TK-10, 48 h, read-out: Activity
SK-OV-3 = experiment: Cytotoxicity against human SKOV3 cells assessed as cell growth at 0.1 uM after 48 hrs by sulforhodamine B assay relative to control; details: SK-OV-3, 48 h, read-out: Activity
SR = experiment: Cytotoxicity against human SR cells assessed as cell growth at 10 uM after 48 hrs by sulforhodamine B assay relative to control; details: read-out: Activity
NCI/ADR-RES [11] = experiment: Cytotoxicity against human NCI/ADR-RES cells assessed as cell growth at 0.1 uM after 48 hrs by sulforhodamine B assay relative to control; details: read-out: Activity
786-0 = experiment: Cytotoxicity against human 786-0 cells assessed as cell growth at 10 uM after 48 hrs by sulforhodamine B assay relative to control; details: 786-0, 48 h, read-out: Activity
MDA-MB-231 = experiment: Cytotoxicity against human MDA-MB-231 cells assessed as cell growth at 0.1 uM after 48 hrs by sulforhodamine B assay relative to control; details: MDA-MB-231, 48 h, read-out: Activity
OVCAR-4 = experiment: Cytotoxicity against human OVCAR4 cells assessed as growth inhibition after 48 hrs by sulforhodamine B assay; details: OVCAR-4, 48 h
NCI-H23 = experiment: Cytotoxicity against human NCI-H23 cells assessed as cell growth at 0.01 uM after 48 hrs by sulforhodamine B assay relative to control; details: NCI-H23, 48 h, read-out: Activity
SF-268 = experiment: Cytotoxicity against human SF268 cells assessed as growth inhibition after 48 hrs by sulforhodamine B assay; details: SF-268, 48 h; for CC50: read-out: LC50 (the source's name)
CCRF-CEM = experiment: Cytotoxicity against human CCRF-CEM cells assessed as growth inhibition after 48 hrs by sulforhodamine B assay
MDA-MB-468 = experiment: Cytotoxicity against human MDA-MB-468 cells assessed as cell growth at 100 uM after 48 hrs by sulforhodamine B assay relative to control; details: MDA-MB-468, 48 h, read-out: Activity
HCT-15 [12] = experiment: Cytotoxicity against human HCT15 cells assessed as growth inhibition after 48 hrs by sulforhodamine B assay; details: HCT-15, 48 h

COc1cc(-c2cc(/C=C/C(=O)c3ccc(Cl)c(Cl)c3)[nH]n2)cc(OC)c1OC
LC50 (TK-10 [1]): > 100 µM | TGI (TK-10 [1]): 43.2 µM | growth at 0.1 µM (Hs-578T [2]): 105% | growth at 1 µM (NCI-H460): 93% | growth at 100 µM (SNB-19 [3]): 12% | growth at 1 µM (A498): 73% | LC50 (concentration killing 50% of cells) (NCI-H226): > 100 µM | TGI (NCI-H226): > 100 µM | LC50 (HCT-116 [4]): > 100 µM | TGI (HCT-116 [4]): 21.5 µM | growth at 1 µM (UACC-62): 96% | growth at 0.1 µM (HCT-116 [5]): 100% | growth at 100 µM (Hs-578T [6]): 3% | growth at 100 µM (NCI/ADR-RES [7]): 5% | growth at 1 µM (MCF7): 62% | LC50 (concentration giving 50% net cell kill) (A549): > 100 µM | TGI (A549): > 100 µM | LC50 (lethal concentration, 50% net cell kill) (SW-620): > 100 µM | TGI (SW-620): 79.6 µM | growth at 1 µM (HOP-62): 68% | growth at 10 µM (SK-MEL-28): 73% | growth at 0.01 µM (HCT-15 [8]): 69% | LC50 (NCI-H522): 6.97 µM | TGI (NCI-H522): 3.04 µM | growth at 0.1 µM (SNB-19 [9]): 92% | growth at 10 µM (KM12): 19% | growth at 1 µM (TK-10 [10]): 93% | growth at 0.1 µM (SK-OV-3): 104% | growth at 10 µM (SR): 8% | growth at 0.1 µM (NCI/ADR-RES [11]): 96% | growth at 10 µM (786-0): 50% | growth at 0.1 µM (MDA-MB-231): 102% | LC50 (OVCAR-4): > 100 µM | TGI (OVCAR-4): 50.9 µM | growth at 0.01 µM (NCI-H23): 95% | TGI (SF-268): 63.3 µM | CC50 (SF-268): > 100 µM | LC50 (concentration killing 50% of cells) (CCRF-CEM): > 100 µM | TGI (CCRF-CEM): 23.5 µM | growth at 100 µM (MDA-MB-468): -37%

COc1cc(C(=O)/C=C/c2cc(-c3cc(OC)c(OC)c(OC)c3)n[nH]2)cc(OC)c1OC
LC50 (TK-10 [1]): 5.34 µM | TGI (TK-10 [1]): 2.8 µM | LC50 (HCT-15 [12]): 7.19 µM | TGI (HCT-15 [12]): 3.29 µM | growth at 0.1 µM (Hs-578T [2]): 90% | growth at 1 µM (NCI-H460): 89% | growth at 100 µM (SNB-19 [3]): -98% | growth at 1 µM (A498): 80% | TGI (NCI-H226): 3.05 µM | LC50 (HCT-116 [4]): 5.12 µM | TGI (HCT-116 [4]): 2.59 µM | growth at 1 µM (UACC-62): 90% | growth at 0.1 µM (HCT-116 [5]): 104% | growth at 100 µM (Hs-578T [6]): -4% | growth at 100 µM (NCI/ADR-RES [7]): -24% | growth at 1 µM (MCF7): 40% | LC50 (concentration giving 50% net cell kill) (A549): 59.2 µM | TGI (A549): 12.1 µM | LC50 (lethal concentration, 50% net cell kill) (SW-620): 5.97 µM | TGI (SW-620): 3.08 µM | growth at 1 µM (HOP-62): 78% | growth at 10 µM (SK-MEL-28): -92% | growth at 0.01 µM (HCT-15 [8]): 95% | LC50 (NCI-H522): 4.22 µM | TGI (NCI-H522): 1.7 µM | growth at 0.1 µM (SNB-19 [9]): 90% | growth at 10 µM (KM12): -90% | growth at 1 µM (TK-10 [10]): 80% | growth at 0.1 µM (SK-OV-3): 95% | growth at 10 µM (SR): 12% | growth at 0.1 µM (NCI/ADR-RES [11]): 106% | growth at 10 µM (786-0): -77% | growth at 0.1 µM (MDA-MB-231): 104% | LC50 (OVCAR-4): 5.25 µM | TGI (OVCAR-4): 2.76 µM | growth at 0.01 µM (NCI-H23): 100% | TGI (SF-268): 4.58 µM | CC50 (SF-268): 14.2 µM | LC50 (concentration killing 50% of cells) (CCRF-CEM): > 100 µM | growth at 100 µM (MDA-MB-468): -91%
